How the values were obtained:
[1] = tested on: Wild-type N2 C. elegans worms; experiment: Nile Red staining of fat accumulation in wild-type N2 C. elegans; assay type: in vivo; details: 100 μM; for fat mobilization (fat content of the worms): L1 worms, vehicle DMSO
HepG2 cells = experiment: Oxidation of 14C-palmitate in HepG2 cells; assay type: cell-based; details: resveratrol 10 μM in 1% DMSO, AICAR 500 μM in H2O, metformin 1 mM in H2O; 4 hours; vehicle = 1
Experimental: (§1) Oxidation of 14C-palmitate to acid-soluble products (modified from H4IIEC3 cells [Witters, L. A. and B. E. Kemp, Insulin activation of acetyl-CoA carboxylase accompanied by inhibition of the 5′-AMP-activated protein kinase. J Biol Chem, 1992. 267(5): p. 2864-7] and HepG2 cells were maintained as described above. Cells (10^6 cells/T25) were seeded in a T25 flask one day prior to the experiment. On the day of the experiment cells were washed with assay buffer (114 mM NaCl, 4.7 mM KCL, 1.2 mM KH2PO4, 1.2 mM MgSO4, 11 mM glucose) before labeling with 14C-palmitate (0.4 μCi/ml) in presence of vehicle, or resveratrol (10 μM), or AICAR (500 μM) for 4 hours.
(§2) At the end of incubation, the cap of each T25 flask was replaced with a stopper and a 1′×1.5″ Whatman filter paper soaked with 250 μl 2N NaOH. Each flask was injected with 2 ml of 6N HCL, placed in a horizontal position for 10 minutes and left standing overnight. The next morning, 1 ml H2O and 61 μl NaOH were added to a glass scintillation vial and the filter papers from each T25 flask were transferred to their respective vial. 10 ml Aquasol was added to each vial and allowed to stand for 2 hours, after which the vials were vortexed to dissolve the […] and counted in the scintillation counter. The results were expressed as nmols/h/106 cells and shown as the fold effect. ^14CO2 production ranged from 0.3 to 1.8 nmols/h/106 cells. The experiment was repeated three times.

[2] = tested on: phosphorylation of AMPK on threonine 172 and of ACC on serine 79; experiment: Western analysis of AMPK and ACC phosphorylation in CHO-HIR cells; assay type: cell-based; details: resveratrol 12.5, 25 or 50 μM; AICAR 500 μM (positive control); 30 minutes; serum-free overnight
Experimental: CHO-HIR mammalian cells were washed in PBS and incubated overnight in serum-free DMEM before treatment with 500 μM AICAR (positive control) or 12.5 μM, 25 μM or 50 μM resveratrol. Cells were harvested after 30 minutes and lysates were immediately boiled in SDS and subjected to Western analysis with site-specific antibodies. Phosphorylation of AMPK at Thr172 indicates activation of the kinase. Active AMPK phosphorylates and inactivates ACC at serine 79.
CHO cells were also treated with 500 μM AICAR (positive control), DMSO, 100 nM, 500 nM, 2.5 μM, 12.5 μM, 25 μM, or 50 μM resveratrol and subject to Western Blot analysis as described above. Western blots were stripped and re-probed for phosphorylated (active) AMPK, total AMPK, phosphorylated acetyl CoA carboxylase (ACC), which is the downstream target of AMPK, and tubulin, which served as a loading control.

H4IIEC3 cells = experiment: Oxidation of 14C-palmitate in H4IIEC3 cells; assay type: cell-based; details: resveratrol 10 μM in 1% DMSO, AICAR 500 μM in H2O, metformin 1 mM in H2O; 4 hours; vehicle = 1
Experimental: as §1, §2

C. elegans worms = experiment: Nile Red fat staining in C. elegans fed RNAi bacteria; assay type: in vivo; details: RNA inactivation of TOC1.8 (AMPK homolog) or F41E7.3 (COT homolog)
Experimental: The role of Sir2.1 in fat metabolism was shown in C. elegans worms in which Sir2.1 was RNA inactivated. Young adult worms were grown to adulthood in the presence of bacteria that carry RNAi vector alone or vector encoding Sir2.1 RNAi (R11A8.4), as described below. These worms were grown in the presence or absence of resveratrol, and stained with Nile-Red as described below.
We have examined the C. elegans database and found two gene products that are highly related to mammalian AMPK, TOC1.8 and Par2.3; five genes encoding homologs of CPT-1 and one gene encoding a homolog of COT. C. elegans worms were incubated with bacteria carrying RNAi vector alone, or interfering RNA against TOC1.8 or F41E7.3, a C. elegans homologue of COT in the presence or absence of AICAR. Fat accumulation was visualized with Nile-Red, as described below. […] Thus, AICAR/AMPK signaling to fatty acid oxidation is conserved in worms and mammalian cells.
The effect of TOC1.8 and COT inactivation was then investigated in C. elegans incubated with resveratrol. C. elegans worms were incubated with bacteria carrying RNAi vector alone, or a vector encoding TOC1.8 or COT interfering RNA in the presence or absence of resveratrol. Fat accumulation was visualized with Nile-Red, as described below.
RNAi plates were seeded with HTT5 E. coli carrying either the L4440 RNAi vector control or the specific RNAi clones T01C8.1, AMPK; R11A8.4, sir-2.1; or F41E7.6 COT in the presence or absence of 100 μM resveratrol. Young adults were transferred to plates containing the appropriate vector, Nile Red stain and drug then maintained at 25° C. Nile Red staining was assessed 24 hours after resveratrol treatment by UV microscopy.
HT115 E. Coli carrying the RNAi vector, L4440, were used for maintenance feeding. Bacteria containing experimental RNAi clones were cultured in 10 ml Luria Broth media containing 50 μg/ml ampicillin for 18 hours. 350 μl of each culture was spotted to a 60 mm dish containing NGM agar, 6 mM IPTG and 25 μg/ml carbenicillin. After overnight incubation (at room temp), Nile Red was added on top of each dish to a final concentration of 0.05 μg/ml along with the experimental compounds indicated in the figure legends. Nile Red staining was assessed after 24 hrs by UV microscopy. For each batch of RNAi clones tested, L4440 (vector alone) was included. […] All phenotypes were confirmed by at least three additional rounds of testing.

[3] = tested on: Wild-type N2 C. elegans worms; experiment: Nile Red staining of fat accumulation in wild-type N2 C. elegans; assay type: in vivo; details: 0, 1 or 10 mM, overnight
Experimental: Wild-type N2 C. elegans worms were grown on OP50 bacteria and exposed overnight to vehicle (0.1% ethanol) alone or with 10, 50 or 100 μM of resveratrol (in ethanol). Fat accumulation was visualized with Nile Red staining, as described further below and in Ashrafi K, et al. Nature 421:268-27 (2003).
Synchronized starved L1 worms were grown in the presence of Nile Red. Strains were grown on NGM plates at 25° C. for approximately 48 hours until the young adult stage was reached. 20-30 young adult worms were then washed 2× with M9 buffer and transferred to new NGM/Nile red experimental plates that contained either OP50 or HTT5 E. coli carrying the L4440 RNAi control vector. For experiments comparing the effect of nicotinamide and resveratrol on fat mobilization, OP50 plates were coated with vehicle alone or Nicotinamide (in PBS), or vehicle alone and Resveratrol (in Ethanol or DMSO).
Resveratrol (Indofine #024964) was dissolved in Ethanol or DMSO to a 10 mM stock solution. Resveratrol was added to 60 mm NGM agar dishes containing either OP50 or RNAi expressing bacteria (HT115) to a final concentration of 10 μm, 50 μm, and 100 μM. Nile Red was also added to plates to a final concentration of 0.05 μg/ml. Nicotinamide (Supelco #47865-U) was diluted in PBS including Nile Red and added to […] dishes containing OP50 to a final concentration of 1 mM, 10 mM, or 100 mM.
Nile Red: Nile Red Powder (Sigma #N-3013) was dissolved in acetone at 500 μg/ml, diluted in 1× Phosphate Buffered Saline (PBS) including appropriate drug and applied to surface of Nematode Growth Media (NGM) plates previously seeded with OP50 or RNAi bacteria, at a final concentration of 0.05 μg/ml. Fat content was monitored and recorded by fluorescence microscopy.
Nile Red Staining was visualized by using a Nikon TE2000S microscope equipped with a CY3 filter (emission 535-685 nm). Images were captured using a SPOT RT monochrome digital camera attached to the Nikon Microscope with SPOT RT software v3.5. All Nile red images were acquired using identical settings and exposure times and then changed to red palette.

[4] = tested on: TNF-alpha treated adipocytes; experiment: Radioactive glucose uptake in TNF-alpha treated, insulin resistant adipocytes; assay type: cell-based; details: resveratrol 5 μM or 15 μM; roziglitazone 4 μM (positive control); with TNF-alpha
Experimental: Adipocytes were treated with TNF-alpha to induce insulin resistance as described in Kabayama et al., Glycobiology 15:21-29 (2005) and Wu et al., Mol. Cell 3:151-8 (1999).

With `CSc1ccc(/C=C/c2cc(O)cc(O)c2)cc1` [3,5-dihydroxy-4′-thiomethyl-trans-stilbene] the fat staining ([1]; 24 hours, control 1% v/v DMSO) was “Significant reduction of fat staining”.
With `NC(=O)c1ncn([C@@H]2O[C@H](CO)[C@@H](O)[C@H]2O)c1N` [AICAR, 5-aminoimidazole-4-carboxamide-1-beta-D-ribofuranoside, reference compound] the “14C-CO2 production (Fold Effect)” value (HepG2 cells) was 5 Fold Effect, the “phosphorylation of AMPK (threonine 172) and ACC (serine 79)” value [2] was “stimulates phosphorylation of AMPK and ACC” and the “14C-CO2 production (Fold Effect)” value (H4IIEC3 cells) was 2.3 Fold Effect. For the same compound, the fat mobilization (C. elegans worms) was “inhibits AICAR-stimulated fat mobilization”.
With `CN(C)C(=N)N=C(N)N` [Metformin] the “14C-CO2 production (Fold Effect)” value (HepG2 cells) was 3.5 Fold Effect and the “14C-CO2 production (Fold Effect)” value (H4IIEC3 cells) was 2 Fold Effect.
With `O=C(/C=C/c1ccc(O)c(O)c1)c1ccc(O)cc1O` [butein, 3,4,2′,4′-Tetrahydroxychalcone] the “fat mobilization (fat content of the worms)” value ([1]; 48 hours) was “stimulate fat mobilization”.
In the case of `C(=C/c1ccccc1)/c1ccccc1` [cis-stilbene, cis-Stilbene], the fat staining ([1]; L1 animals, 48 hours, control 2.5% v/v DMSO) is reported as “No significant effect on worm fat staining”.
`O=c1c(O)c(-c2ccc(O)c(O)c2)oc2cc(O)ccc12` [fisetin, 3,7,3′,4′-Tetrahydroxyflavone] was tested, and the “fat mobilization (fat content of the worms)” value ([1]; 48 hours) was “stimulate fat mobilization”.
`NC(=O)c1cccnc1` [nicotinamide, reference compound] was tested, and the fat accumulation [3] was “concentration dependent increase in fat accumulation”.
In the case of `Oc1cc(O)cc(/C=C/c2ccc(O)c(O)c2)c1` [piceatannol, 3,5,3′,4′-Tetrahydroxy-trans-stilbene], the “fat mobilization (fat content of the worms)” value ([1]; 48 hours) is reported as “stimulate fat mobilization”.
`O=c1c(O)c(-c2ccc(O)c(O)c2)oc2cc(O)cc(O)c12` [quercetin, 3,5,7,3′,4′-Pentahydroxyflavone] was tested, and the “fat mobilization (fat content of the worms)” value ([1]; 48 hours) was “stimulate fat mobilization”.
`CN(CCOc1ccc(CC2SC(=O)NC2=O)cc1)c1ccccn1` (centres unmarked) [roziglitazone, reference compound] was tested, and the “radioactive glucose uptake / insulin sensitivity” value [4] was “increases the uptake of radioactive glucose”.

Source: US9597347B2, “Compositions for treating obesity and insulin resistance disorders” (President and Fellows of Harvard College, priority 2003, dated 2017)
